Measured values reported in patent US20230151021A1, “Compounds and Compositions for Treating Hematologic Malignancies” (priority 2020, published 2023).
Like-named read-outs stand apart in the source and are kept apart here.

Key:
[1] = Stability in simulated intestinal fluid
[2] = Stability in simulated gastric fluid
NOD/SCID mice = assay: In vivo toxicity test; details: 24 days; for survival: 4 mice per group
Protocol: […]; 4 mice per group) were intraperitoneally injected with a maximum dose of […] of Brusatol, #15 or #26 compound every other day (three times per week). The survival rate was recorded to monitor the tolerance of the compounds in these mice.
[…]. Six-week-old male NOD.CB17PrkdcSCID/J (NOD/SCID) mice (Jackson Labs, Bar Harbor, Me., USA; 4 mice per group) were intraperitoneally injected with a dose of 5 mg/kg of one of three compounds—brusatol, 15, or 26—every other day, three times per week. The mice were monitored and euthanized after 24 days of treatment. […]. […] […].

[3] = test system: 13 cell lines representing a range of hematologic malignancies; assay: Cell viability in panel of hematologic malignancy derived cell lines; details: 100 nM, 72 hours
Protocol: Cell viability was determined after 72 hours by detecting luminescence. ALL, acute lymphoblastic leukemia; BL, Burkitt's lymphoma; DLBCL, diffuse large B-cell lymphoma; MCL, mantle cell lymphoma; AML, acute myeloid leukemia; MM, multiple myeloma; LCLs, lymphoblastoid cell lines.
(§2) 5000 cells as indicated were cultured in 96-well plate with 100 μl of media. On the next day, Brusatol or associated analogs were added once to the cells without media change. After treatment, the cells were incubated with 100 μl buffer for 10 minutes at room temperature following the instructions of CellTiter-Glo kit (Promega, Madison, Wis.). Luminescence was detected using a multi-mode reader Cytation 5 (BioTek, Winooski, Vt.). Brusatol or its analogs are dissolved in 100% ethanol and diluted in 1×PBS for treatment. Two independent experiments done in duplicates were performed.

Raji cells [4] = assay: cells; format: cell-based, human; details: for activity on viability of Raji cells (in words): 100 nM for 72 h
MOLM14 xenografts = assay: In vivo tumorigenic assay using xenografts; set-up: species or system NOD/SCID mice; details: 2 mg/kg intraperitoneally three times per week, two weeks
Protocol: Six-week-old male NOD.CB17-Prkdc^scid/J (NOD/SCID) mice (Jackson Labs, Bar Harbor, Me., USA) were used as the human-in-mouse xeno-transplantation model. MOLM14 cells (1×10^7 cells) were injected into the subcutaneous space on the left flank of the mice. Once xenografts reached a size of 100 mm^3, Brusatol and analogs (14, 15, 26, 31) at 2 mg/kg body weight or PBS were injected intraperitoneally three times per week. Body weight and tumor size were monitored before every injection. After treatment for two weeks, the mice were euthanized by CO2 inhalation and the tumors were carefully excised. The tumor volume (mm^3) was measured and calculated using the formula (a×b×b)/2 (a, the largest diameter of two measurements; b, the smallest diameter of two measurements).

[5] = 60 min
[6] = MetID profile in mouse liver microsomes; format: in vitro ADME; details: 60 min of incubation
Protocol: In order to determine if 26 induces liver microsomal metabolism changes, the MetID profile of 26 in mouse liver microsomes was investigated under the same conditions as for brusatol. […] However, 87% of 26 (area %) was detected after 60 min of incubation while five identified metabolites were all in relatively small percentages.

[7] = 60 min; remark: listed apart in the source
[8] = not given; remark: listed apart in the source
Plasma stability [9] = assay: Plasma stability
LCL1 cells = assay: Cell viability assay (CellTiter-Glo luminescence); format: cell-based; details: Homo sapiens; LCL1, 5000 cells, 72 hours; read-out: half-maximal inhibitory concentration (IC50)
AKT1, GSK3, and mTOR = assay: Western blot of PI3K/AKT regulated signaling proteins; format: cell-based, human; details: Raji and SU-DHL-4 cells; 0, 50 nM, 100 nM; 0, 12 hours, 24 hours
Protocol: Western blot analyses were performed as previously described. Briefly, total cell lysates were separated by SDS-PAGE gel and transferred to nitrocellulose membrane. The membranes were blocked with 5% non-fat milk, probed with specific antibodies, and visualized using the Odyssey scanner (LiCor Inc., Lincoln, Nebr.).

Plasma stability [10] = assay: Plasma stability; remark: listed apart in the source
SU-DHL-4 cells [11] = assay: Cell viability assay (CellTiter-Glo luminescence); format: cell-based; details: Homo sapiens, SU-DHL-4, 48 h, read-out: viability of cells inhibited
[12] = test system: HL60, K562, MOLM14 and SU-DHL-4 cell lines; assay: IC50 of Brusatol in less and more sensitive cell lines; format: cell-based, human; details: 72 hours
Protocol: FIGS. 5A-5F: PI3K family of proteins is crucial for Brusatol-mediated inhibitory effects. FIG. 5A: IC50 assays of Brusatol were determined in the indicated cancer cells. All of the cells were treated for 72 hours. […] NS, not significant. […] Then cells were fixed and stained with PI. Flow cytometry assays were performed to determine cell cycle progression. The subG1 population in cells was labeled as the percentage. […] FIG. 5F: The described cells were incubated with Brusatol (0, 50 nM, 100 nM) for different periods (0, 12 hours, 24 hours).

Raji cells [13] = assay: Cell cycle assay (PI staining, flow cytometry); format: cell-based, human; details: 100 nM, 48 hours
Protocol: (§1) 5 million cells were harvested, fixed with 80% ethanol for 2 hours or overnight at −20° C., then washed with PBS and incubated with Propidium iodide (PI) staining buffer (0.5 mg/ml propidium iodide in PBS with 50 μg/ml RNase A) for 30 minutes at room temperature. The stained cells were resuspended in PBS and analyzed on a FACSCalibur system (Becton Dickinson, San Jose, Calif., USA) using FlowJo software (TreeStar, San Carlos, Calif., USA).

K562 cells = assay: Cell cycle assay (PI staining, flow cytometry); format: cell-based, human; details: K562, 100 nM, 48 hours
Protocol: as §1

SU-DHL-4 cells [14] = assay: Cell cycle assay (PI staining, flow cytometry); format: cell-based, human; details: SU-DHL-4, 100 nM, 48 hours
Protocol: as §1

HL-60 cells = assay: Cell cycle assay (PI staining, flow cytometry); format: cell-based, human; details: HL-60, 100 nM, 48 hours
Protocol: as §1

[15] = test system: MOLT-4, SU-DHL-6, SU-DHL-10, RPMI-8226, and LCL1; assay: Cell viability in five additional cell lines; details: MOLT-4, SU-DHL-6, SU-DHL-10, RPMI-8226, LCL1
Protocol: as §2
To investigate their inhibitory activities on the growth of EBV-associated lymphomas and other types of lymphomas, conjugates were first investigated for their effects on the viability of Raji cells, a Burkitt's lymphoma (BL) cell line, when treated at 100 nM for 72 h. […] These cell lines represent the cell models of a range of hematologic malignancies.

[16] = 5 mg/kg intraperitoneally every other day
[17] = 10 mg/kg intraperitoneally every other day

COC(=O)[C@@]12OC[C@]34C([C@@H](O)[C@@H]1O)[C@@]1(C)CC(=O)C(OC(=O)CNC(=O)OC(C)(C)C)=C(C)[C@@H]1C[C@H]3OC(=O)[C@H](OC(=O)C=C(C)C)[C@@H]24 (stereo partly drawn) [Compound 15, methyl (1R,2S,3S,3aS,3a1R,4R,6aR,7aR,11aS)-9-(((tert-butoxycarbonyl)glycyl)oxy)-1,2-dihydroxy-8,11a-dimethyl-4-((3-methylbut-2-enoyl)oxy)-5,10-dioxo-1,4,5,6a,7,7a,10,11,11a,11b-decahydro-2H-3,3a1-(epoxymethano)dibenzo[de,g]chromene-3(3aH)-carboxylate]
Stability in simulated intestinal fluid (% at 4 h) [1]: 42%
Stability in simulated gastric fluid (% at 4 h) [2]: 25%
mice survived (of four) (NOD/SCID mice; [16]): two
survival (NOD/SCID mice; [16]): 50%
toxicity in vivo (in words) (NOD/SCID mice; [17]): obviously lethal for the majority of mice within the first 4 days
survival (NOD/SCID mice; [17]): 0%
inhibition of cell viability (in words) [3]: significantly inhibit cell viability
activity on viability of Raji cells (in words) (Raji cells [4]): moderate inhibition
tumor size response (in words) (MOLM14 xenografts): strong and rapid inhibitory response

COC(=O)[C@@]12OC[C@]34C([C@@H](O)[C@@H]1O)[C@@]1(C)CC(=O)C(OC(=O)C[C@H](C)N)=C(C)[C@@H]1C[C@H]3OC(=O)[C@H](OC(=O)C=C(C)C)[C@@H]24 (stereo partly drawn) [Compound 26, methyl (1R,2S,3S,3aS,3a1R,4R,6aR,7aR,11aS)-9-(((S)-3-aminobutanoyl)oxy)-1,2-dihydroxy-8,11a-dimethyl-4-((3-methylbut-2-enoyl)oxy)-5,10-dioxo-1,4,5,6a,7,7a,10,11,11a,11b-decahydro-2H-3,3a1-(epoxymethano)dibenzo[de,g]chromene-3(3aH)-carboxylate]
percentage of brusatol converted from 26, rat plasma [5]: 60%
mice survived (of four) (NOD/SCID mice; [16]): four
toxicity in vivo (in words) (NOD/SCID mice; [16]): did not show any obvious signs of toxicity
toxicity in vivo (in words) (NOD/SCID mice; [17]): did not show any obvious signs of toxicity
Stability in simulated intestinal fluid (% at 4 h): 76%
parent detected after incubation in mouse liver microsomes (area %) [6]: 87%
percentage of brusatol converted from 26, human plasma [7]: 47%
Stability in simulated gastric fluid (% at 4 h) [8]: 97%

COC(=O)[C@@]12OC[C@]34C([C@@H](O)[C@@H]1O)[C@@]1(C)CC(=O)C(O)=C(C)[C@@H]1C[C@H]3OC(=O)[C@H](OC(=O)C=C(C)C)[C@@H]24 (stereo partly drawn) [Brusatol, methyl (1R,2S,3S,3aS,3a1R,4R,6aR,7aR,11aS)-1,2,9-trihydroxy-8,11a-dimethyl-4-((3-methylbut-2-enoyl)oxy)-5,10-dioxo-1,4,5,6a,7,7a,10,11,11a,11b-decahydro-2H-3,3a1-(epoxymethano)dibenzo[de,g]chromene-3(3aH)-carboxylate]
Stability in simulated intestinal fluid (% at 4 h) [1]: 100%
Stability in simulated gastric fluid (% at 4 h) [2]: 109%
mice survived (of four) (NOD/SCID mice; [16]): three
survival (NOD/SCID mice; [16]): 75%
Plasma stability remaining % at 60 min, rat (Plasma stability [9]): 100%
cytotoxicity at 0.1 µM (Raji cells [4]; Homo sapiens, 100 nM, 48 hours post-treatment, read-out: viability of cells inhibited): > 80%
IC50 (Raji cells [4]; Homo sapiens, 5000 cells, 72 hours, read-out: half-maximal inhibitory concentration (IC50)): 2 to 6 nM
IC50 (LCL1 cells): 2 to 6 nM
parent detected after incubation in mouse liver microsomes (area %) [6]: 40%
protein expression of AKT1, GSK3, and mTOR (in words) (AKT1, GSK3, and mTOR): significantly reduced
Plasma stability remaining % at 60 min, human (Plasma stability [10]): 91%
cytotoxicity at 0.1 µM (SU-DHL-4 cells [11]): > 80%
fold more sensitive (IC50), MOLM14 and SU-DHL-4 compared to HL60 and K562 [12]: about 10 fold
cells in the sub-G1 phase (Raji cells [13]): 68.4%
cells in the sub-G1 phase (K562 cells): 3.19%
cells in the sub-G1 phase (SU-DHL-4 cells [14]): 67.9%
cells in the sub-G1 phase (HL-60 cells): 7.63%

COC(=O)[C@@]12OC[C@]34C([C@@H](O)[C@@H]1O)[C@@]1(C)CC(=O)C(OCC(=O)NCCN)=C(C)[C@@H]1C[C@H]3OC(=O)[C@H](OC(=O)C=C(C)C)[C@@H]24 (stereo partly drawn) [Compound 40, methyl (1R,2S,3S,3aS,3a1R,4R,6aR,7aR,11aS)-9-(2-((2-aminoethyl)amino)-2-oxoethoxy)-1,2-dihydroxy-8,11a-dimethyl-4-((3-methylbut-2-enoyl)oxy)-5,10-dioxo-1,4,5,6a,7,7a,10,11,11a,11b-decahydro-2H-3,3a1-(epoxymethano)dibenzo[de,g]chromene-3(3aH)-carboxylate]
activity on viability of Raji cells (in words) (Raji cells [4]): moderate activity
activity on five additional cell lines (in words) [15]: moderate to good activities
